Data reported in US20230346670A1, “Prebiotic Oral Care Compositions and Methods” (Colgate-Palmolive Company, priority 2020, published 2023).
Marks after values point to notes of the source that are not given here.

Tests used:
Type in all cases: cell-based
[1] = test system: F. nucleatum virulence genes; assay: Virulence gene expression in multi-species biofilm (SYBR RT-qPCR); details: relative to control = 1, 2^-ΔΔCt, n = 3
Description: (§1) Biofilms are grown vertically on Calcium Deficient Hydroxyapatite (CAD-HA) disks (Hitemco Medical, Old Bethpage, USA) using the Amsterdam Active Adhesion model. Biofilms are allowed to establish during 24 h (37° C., 170 rpm) under microaerophilic conditions (6% O2, 7% CO2, 7% H2, 80% N2). After this 24 h, disks are rinsed 3 times a day for 3 minutes (RT, 250 rpm), for 3 consecutive days, by transferring the lid containing the disks to a new 24-well plate containing 2 mL/well of the appropriate substrate solution. As a negative control, PBS (pH 5.7) without substrate supplementation is used.
(§2) The virulence of the substrate-treated multi-species biofilms are evaluated by analyzing the relative expression of 33 genes that are recognized as being related to some form of virulence and from 4 periodontal pathogens.
(§3) Expression of bacterial virulence genes is analyzed through SYBR RT-qPCR and normalized for bacterial housekeeping gene expression. […] These effects are illustrated in Tables 6a and 6b:
(§4) Note, for Table 6c, fold changes in virulence gene expression are determined relative to the control condition through the 2^^-ΔΔCt method and are shown as the geometric mean (C.I.) (n = 3) of the 2^^-ΔΔCt values. All substrates are dissolved in PBS at a concentration of 1 M (upper part) or 1%(w/v) (lower part). Values between 0 and 1 represent relative downregulation, values >1 represent relative upregulation. […] NADG: N-acetyl-D-glucosamine; C.I.: 95% confidence interval.

[2] = test system: P. gingivalis virulence genes; assay: as above; details: relative to control, 2^-ΔΔCt, n = 3
Description: as §1, §2, §3
as §4, with “Note, for Tables 6a and 6b, that fold changes” for “Note, for Table 6c, fold changes”, “of the 2^^-ΔΔ ^Ct values. All” for “of the 2^^-ΔΔCt values. All”

[3] = test system: A. actinomycetemcomitans virulence genes; assay: as above
Description: as §1, §2, §3
as §4, with “Note, for Tables 6a and 6b, that fold changes” for “Note, for Table 6c, fold changes”, “of the 2^^-ΔΔ ^Ct values. All” for “of the 2^^-ΔΔCt values. All”

S. oralis = assay: Multi-species biofilm composition, absolute abundance (Geq/mL); details: repeated rinsing
Description: as §1
(§5) N-acetyl-D-glucosamine (NADG), α-D-lactose, D-(+)-trehalose and D-(+)-raffinose are selected to determine their effects on multi-species biofilm composition. Repeated rinsing of the biofilms with the substrates at a concentration of 1 M results in a significant decrease in absolute numbers in at least four of the pathogenic bacterial species tested in the assay, in comparison to the control, the results of which are described in Table 1 below. Note, NADG decreased absolute numbers of S. sobrinus. Absolute abundances of bacterial species are shown as mean ± SD (n = 3) logarithmic values of the genome equivalents per millilitre (log(Geq/mL)).

S. sobrinus = assay: as above; details: repeated rinsing
Description: as §1, §5

A. naeslundii = assay: as above; details: repeated rinsing
Description: as §1, §5

S. gordonii = assay: as above; details: repeated rinsing
Description: as §1, §5

P. gingivalis = assay: as above; details: repeated rinsing
Description: as §1, §5

S. mitis = assay: as above; details: repeated rinsing
Description: as §1, §5

[4] = test system: multi-species biofilm (beneficial/commensal species, periodontal pathogens, cariogenic pathogens); assay: Multi-species biofilm composition, relative proportions and group changes
Description: Biofilms are grown vertically on Calcium Deficient Hydroxyapatite (CAD-HA) disks (Hitemco Medical, Old Bethpage, USA) using the Amsterdam Active Adhesion model. […] After this 24 h, disks are rinsed 3 times a day for 3 minutes (RT, 250 rpm), for 3 consecutive days, by transferring the lid containing the disks to a new 24-well plate containing 2 mL/well of the appropriate substrate solution. As a negative control, PBS (pH 5.7) without substrate supplementation is used. N-acetyl-D-glucosamine (NADG), α-D-lactose, D-(+)-trehalose and D-(+)-raffinose are selected to determine their effects on multi-species biofilm composition. Repeated rinsing of the biofilms with the substrates at a concentration of 1 M results in a significant decrease in absolute numbers in at least four of the pathogenic bacterial species tested in the assay, in comparison to the control, the results of which are described in Table 1 below. Note, NADG decreased absolute numbers of S. sobrinus. Absolute abundances of bacterial species are shown as mean ± SD (n = 3) logarithmic values of the genome equivalents per millilitre (log(Geq/mL)).

[5] = lower part of Table 6a, substrate 1%(w/v), relative to control = 1
[6] = substrate 1 M, relative to control = 1, 2^-ΔΔCt, n = 3
[7] = Table 1a, substrate 1 M, listed as D-(+)-trehalose
[8] = Table 3, separate experiments, concentration not given

OC[C@H]1O[C@H](O[C@H]2O[C@H](CO)[C@@H](O)[C@H](O)[C@H]2O)[C@H](O)[C@@H](O)[C@@H]1O [D-trehalose, D-(+)-trehalose]
fold change in ABC transp. perm. (ABC transporter permease) expression, geometric mean (95% C.I.) ([1]; substrate 1% (w/v)): 0.40 (0.15-1.03)^∗ fold | fold change in EF-G expression, geometric mean (95% C.I.) ([1]; substrate 1% (w/v)): 0.12 (0.03-0.55)^∗ fold | fold change in but. -coA transf. (butyrate-acetoacetate CoA-transferase) expression, geometric mean (95% C.I.) ([1]; substrate 1% (w/v)): 0.40 (0.05-3.27) fold | fold change in hemin receptor expression, geometric mean (95% C.I.) ([1]; substrate 1% (w/v)): 0.16 (0.05-0.50)^∗ fold | fold change in hemolysin expression, geometric mean (95% C.I.) ([1]; substrate 1% (w/v)): 0.65 (0.15-2.70) fold | fold change in ompA expression, geometric mean (95% C.I.) ([1]; substrate 1% (w/v)): 0.84 (0.21-3.35) fold | fold change in transposase expression, geometric mean (95% C.I.) ([1]; substrate 1% (w/v)): 1.02 (0.33-3.12) fold | fold change in ABC transp. perm. (ABC transporter permease) expression, geometric mean (95% C.I.) ([1]; substrate 1 M): 32.18 (21.08-49.14)^∗ fold | fold change in EF-G expression, geometric mean (95% C.I.) ([1]; substrate 1 M): 1.18 (0.46-3.02) fold | fold change in but. -coA transf. (butyrate-acetoacetate CoA-transferase) expression, geometric mean (95% C.I.) ([1]; substrate 1 M): 4.28 (1.32-13.86)* fold | fold change in hemin receptor expression, geometric mean (95% C.I.) ([1]; substrate 1 M): 41.19 (20.31-83.52)^∗ fold | fold change in hemolysin expression, geometric mean (95% C.I.) ([1]; substrate 1 M): 12.15 (7.73-19.10)^∗ fold | fold change in ompA expression, geometric mean (95% C.I.) ([1]; substrate 1 M): 1.23 (0.98-1.53) fold | fold change in transposase expression, geometric mean (95% C.I.) ([1]; substrate 1 M): 106.44 (42.35-267.50)^∗ fold | fold change in fimA expression, geometric mean (95% C.I.) ([2]; substrate 1 % (w/v)): 1.58 (0.86-2.90) fold | fold change in kgp expression, geometric mean (95% C.I.) ([2]; substrate 1 % (w/v)): 3.24 (1.63-6.44)^∗ fold | fold change in partC expression, geometric mean (95% C.I.) ([2]; substrate 1 % (w/v)): 0.71 (0.37-1.35) fold | fold change in rgpA expression, geometric mean (95% C.I.) ([2]; substrate 1 % (w/v)): 1.49 (0.69-3.22) fold | fold change in kgp expression, geometric mean (95% C.I.) ([2]; substrate 1 % (w/v), listed as D-(+)-trehalose): approximately 3.2 fold | fold change in fimA expression, geometric mean (95% C.I.) ([2]; substrate 1 M): 0.13 (0.02-0.96)^∗ fold | fold change in kgp expression, geometric mean (95% C.I.) ([2]; substrate 1 M): <LOD | fold change in partC expression, geometric mean (95% C.I.) ([2]; substrate 1 M): 0.03 (0.00-0.49)^∗ fold | fold change in rgpA expression, geometric mean (95% C.I.) ([2]; substrate 1 M): 0.00 (0.00-0.02)^∗ fold | fold change in aae expression, geometric mean (95% C.I.) [3, 5]: 0.95 (0.33-2.78) fold | fold change in apaH expression, geometric mean (95% C.I.) [3, 5]: 0.64 (0.37-1.10) fold | fold change in cdtB expression, geometric mean (95% C.I.) [3, 5]: 0.67 (0.51-0.89) fold | fold change in emaA expression, geometric mean (95% C.I.) [3, 5]: 0.67 (0.49-0.90) fold | fold change in flp expression, geometric mean (95% C.I.) [3, 5]: 0.48 (0.07-3.50) fold | fold change in ltxA expression, geometric mean (95% C.I.) [3, 5]: 0.08 (0.01-0.73)^∗ fold | fold change in omp29 expression, geometric mean (95% C.I.) [3, 5]: 0.51 (0.19-1.34)^∗ fold | fold change in omp100 expression, geometric mean (95% C.I.) [3, 5]: 0.43 (0.26-0.72)^∗ fold | fold change in orf859 expression, geometric mean (95% C.I.) [3, 5]: 1.04 (0.53-2.03) fold | fold change in pgA expression, geometric mean (95% C.I.) [3, 5]: 0.91 (0.81-1.03) fold | fold change in vapA expression, geometric mean (95% C.I.) [3, 5]: 1.02 (0.87-1.21) fold | fold change in vppA expression, geometric mean (95% C.I.) [3, 5]: 0.48 (0.42-0.55)^∗ fold | fold change in aae expression, geometric mean (95% C.I.) [3, 6]: 0.03 (0.01-0.15)^∗ fold | fold change in apaH expression, geometric mean (95% C.I.) [3, 6]: 0.16 (0.04-0.56)^∗ fold | fold change in cdtB expression, geometric mean (95% C.I.) [3, 6]: 0.08 (0.03-0.21)^∗ fold | fold change in emaA expression, geometric mean (95% C.I.) [3, 6]: 0.11 (0.04-0.32)^∗ fold | fold change in flp expression, geometric mean (95% C.I.) [3, 6]: 0.71 (0.30-1.67) fold | fold change in ltxA expression, geometric mean (95% C.I.) [3, 6]: 0.01 (0.00-0.01)^∗ fold | fold change in omp29 expression, geometric mean (95% C.I.) [3, 6]: 0.74 (0.18-3.00) fold | fold change in omp100 expression, geometric mean (95% C.I.) [3, 6]: 0.09 (0.01-1.11)^∗ fold | fold change in orf859 expression, geometric mean (95% C.I.) [3, 6]: 0.14 (0.02-0.87)^∗ fold | fold change in pgA expression, geometric mean (95% C.I.) [3, 6]: 18.24 (5.89-56.51)^∗ fold | fold change in vapA expression, geometric mean (95% C.I.) [3, 6]: 0.32 (0.08-1.26)^∗ fold | fold change in vppA expression, geometric mean (95% C.I.) [3, 6]: 0.32 (0.01-4.50)^∗ fold | fold change in pgA expression, geometric mean (95% C.I.) ([3]; substrate 1 M, relative to control = 1, 2^-ΔΔCt, n = 3, listed as D-(+)-trehalose): 18.2 fold | absolute abundance of S. oralis, mean ± SD log (Geq/mL) (S. oralis; substrate 1% (w/v)): 6.59 ± 0.42 log (Geq/mL) | absolute abundance of S. oralis, mean ± SD log (Geq/mL) (S. oralis; substrate 1 M in PBS, n = 3): 6.71 ± 0.48 log (Geq/mL) | absolute abundance of S. sobrinus, mean ± SD log (Geq/mL) (S. sobrinus; substrate 1% (w/v)): 5.27 ± 0.19 log (Geq/mL) | absolute abundance of S. sobrinus, mean ± SD log (Geq/mL) (S. sobrinus; substrate 1 M in PBS, n = 3): 7.44 ± 0.18^∗ log (Geq/mL) | absolute abundance of A. naeslundii (An), mean ± SD log (Geq/mL) (A. naeslundii; substrate 1% (w/v)): 7.6 ± 0.15 log (Geq/mL) | absolute abundance of A. naeslundii (An), mean ± SD log (Geq/mL) (A. naeslundii; substrate 1 M in PBS, n = 3): 4.81 ± 0.47^∗ log (Geq/mL) | absolute abundance of S. gordonii, mean ± SD log (Geq/mL) (S. gordonii; substrate 1% (w/v)): 8.45 ± 0.27 log (Geq/mL) | absolute abundance of S. gordonii, mean ± SD log (Geq/mL) (S. gordonii; substrate 1 M in PBS, n = 3): 9.39 ± 0.31 log (Geq/mL) | absolute abundance of P. gingivalis (Pg), mean ± SD log (Geq/mL) (P. gingivalis; substrate 1% (w/v)): 7.05 ± 0.19 log (Geq/mL) | absolute abundance of P. gingivalis (Pg), mean ± SD log (Geq/mL) (P. gingivalis; substrate 1 M in PBS, n = 3): 4.37 ± 0.29^∗ log (Geq/mL) | absolute abundance of S. mitis, mean ± SD log (Geq/mL) (S. mitis; substrate 1% (w/v)): 2.65 ± 0.00 log (Geq/mL) | absolute abundance of S. mitis, mean ± SD log (Geq/mL) (S. mitis; substrate 1 M in PBS, n = 3): 3.15 ± 0.71 log (Geq/mL) | relative proportion of beneficial or commensal species in biofilm ([4]; Table 1a, substrate 1 M): 88.98 (+/- 9.12)^∗ % (Geq/mL) | relative proportion of cariogenic pathogens in biofilm ([4]; Table 1a, substrate 1 M): 9.22 (+/- 8.55) % (Geq/mL) | relative proportion of periodontal pathogens in biofilm ([4]; Table 1a, substrate 1 M): 1.80 (+/- 1.04)^∗ % (Geq/mL) | relative proportion of beneficial or commensal species in biofilm [4, 7]: 88.98±9.12 % (Geq/mL) | relative proportion of cariogenic pathogens in biofilm [4, 7]: 9.22±8.55 % (Geq/mL) | relative proportion of periodontal pathogens in biofilm [4, 7]: 1.80±1.04 % (Geq/mL) | relative proportion of beneficials/commensals in biofilm [4, 8]: 73.55 (+/- 2.84) % (Geq/mL) | relative proportion of cariogenic pathogens in biofilm [4, 8]: 0.21 (+/- 0.05) % (Geq/mL) | relative proportion of periodontal pathogens in biofilm [4, 8]: 26.23 (+/- 2.88) % (Geq/mL)
